Measured values published in article PMC3154929, “Phosphatase-Coupled Universal Kinase Assay and Kinetics for First-Order-Rate Coupling Reaction” (PLoS ONE, 2011).

Target: T1, human glucokinase (GCK) (Homo sapiens, UniProt P35557)
T1 construct: V16 to Q465, N-terminal 6xHis tag, expressed in E. coli
T1 sequence (P35557 16-465): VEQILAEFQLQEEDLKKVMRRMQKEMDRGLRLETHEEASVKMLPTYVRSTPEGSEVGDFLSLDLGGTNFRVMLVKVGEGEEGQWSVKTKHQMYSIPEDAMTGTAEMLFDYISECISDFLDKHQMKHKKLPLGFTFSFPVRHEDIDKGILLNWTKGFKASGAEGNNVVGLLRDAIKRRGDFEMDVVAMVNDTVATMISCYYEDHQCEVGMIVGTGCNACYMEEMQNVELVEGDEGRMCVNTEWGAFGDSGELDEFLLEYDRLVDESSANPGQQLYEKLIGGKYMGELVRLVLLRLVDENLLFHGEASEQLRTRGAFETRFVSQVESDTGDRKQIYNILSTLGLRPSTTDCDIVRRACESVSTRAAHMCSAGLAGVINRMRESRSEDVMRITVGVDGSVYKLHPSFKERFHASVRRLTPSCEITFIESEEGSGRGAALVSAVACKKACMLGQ
Assay: CD39L2-coupled malachite green phosphate assay, OD620
Type: biochemical
Settings: 0.12 mM ATP, 10 mM MgCl2, 10 mM CaCl2, 150 mM NaCl, 25 mM Tris pH 7.5, room temperature

Km: 7.23 ± 1.44 mM
SMILES: OC[C@H]1OC(O)[C@H](O)[C@@H](O)[C@@H]1O (stereo partly shown) [glucose]
